Here are results for five compounds from publication PMC4434572, “Identification of novel drugs to target dormant micrometastases” (BMC Cancer, 2015).

“Also recorded” adds a separate entry of the source. Where two headings read alike, the source gives them in different places.

For series [1], the system named is mice. The series can be described thus: Toxicity / maximum tolerated dose in mice. To be noted: mice.
In series [2] the test system is MDA-MB-435 cells. The series can be described thus: Proliferation (CFDA-AM esterase assay) of cells grown on SISgel, plastic or Matrigel, 48 h drug exposure. It is filed as cell-based. Particulars: for EC50: Homo sapiens; for SI (EC50-P/EC50-S): ratio of EC50 on plastic versus SISgel. The text has this:
(§1) The libraries were obtained from the NCI (Diversity Library I) comprised of 2,918 compounds and a 10,000 compound diversity library from ChemBridge, Inc. (DiverSet-EXP). The NCI library is no longer available in the form used here, but how it was constructed is described (http://dtp.nci.nih.gov/branches/dscb/diversity_explanation.html). The ChemBridge library is a subset (Set Code NM1024) of the full 50,000 compound library (http://www.chembridge.com/screening_libraries/diversity_libraries/). Compounds were diluted to 100 μM before use. SISgel was prepared as described previously from powdered porcine small intestine submucosa obtained from Cook Biotech (W. Lafayette, IN). It is a natural product that is used extensively in tissue engineering as a bioscaffold. J82 bladder cancer cells and other cell lines were obtained from the ATCC (Bethesda, MD). The basic principle is that cells grown on any ECM are, in general, expected to show higher resistance to anticancer compounds than when grown on plastic. Therefore, compounds that show a higher activity toward cancer cells on a normal ECM than on a plastic surface would be candidates to target suppressed, micrometastatic cells. Efficacy in vitro was assessed by plating 30,000 cells in 50 μL of high glucose DMEM with penicillin-streptomycin and 10 % fetal calf serum on SISgel in a 96-well plate containing 50 μL of gelled SISgel per well. Cells were allowed to attach and assume the SISgel phenotype for 48 h. A matching plate without SISgel was prepared 24 h later by pipetting 3,000 cells in 100 μL of high glucose DMEM with penicillin-streptomycin and 10 % fetal calf serum into each well of 96 well plate. The cells were allowed to attach and grow for 24 h. These numbers of cells gave approximately equal replication rates at the time drug was added for cells grown on the plastic surface or SISgel as determined by the fraction of S-phase cells identified by flow cytometry. The cells were exposed to drug in fresh medium for 48 h, at which time the cell number was determined using the CFDA-AM cellular esterase proliferation assay (cat. #C1354, Life Technologies). For screening the results are reported as the ratio of cell count of cells on the plastic surface to the cell count on SISgel. An initial difference of 1.5 fold identified potential hits. All potential hits were confirmed in triplicate. Those compounds that replicated were confirmed by a full dose–response study yielding an EC50 using five wells per drug concentration. Data were analyzed using nonlinear regression to a sigmoid curve with Prism 4 (GraphPad Software, Inc., LaJolla, CA). Potential hits that were confirmed by dose–response using J82 were also tested with MDA-MB-435 breast cancer, PC-3 metastatic prostate cancer, Capan1 pancreatic cancer and the J82 bladder cancer cell lines.

Series [3] in a line: in vivo. Particulars: mouse.
For series [4], the system named is J82 (bladder). Briefly: Proliferation EC50 on SISgel vs monolayer. It is filed as cell-based. To be noted: n = 6-8.
Description: as §1

In series [5] the test system is MDA-MB-435 cells. The series can be described thus: Western blot of protein levels after treatment. It is filed as cell-based. As to the method:
Protein content of selected proteins identified by reversed phase protein array (see supplementary materials) as being involved mechanistically in the response to DT320 was assayed by Western blot as described using the following antibodies. The following antibodies were purchased from Cell Signaling Technology (Beverly, MA) and diluted per manufacturer’s directions: Rabbit mAb Anti-Phospho-AKT (Ser473) (D9E) XP® #4060, Rabbit mAb anti-p38 MAPK (D13E1) XP® #8690, Mouse mAb anti-Phospho-SAPK/JNK (Thr183/Tyr185) (G9) #9255, Rabbit mAb anti-Phospho-CHK1 (Ser345) (133D3) #2348, Rabbit polyclonal anti-Phospho-CHK2 (Thr68) Antibody #2661, Rabbit polyclonal anti-BAX Antibody #2772, Rabbit polyclonal anti-Vinculin Antibody #4650, Mouse mAb anti-Cyclin D1 (DCS6) #2926, Rabbit mAb anti-Cyclin E2 (D52F9) b #3741, […], Mouse mAb anti-Cyclin B1 (V152) #4135, Rabbit mAb anti-cleaved PARP (Asp214) (D64E10) XP® #5625, Rabbit mAb anti-cleaved Caspase-3 (Asp175) (5A1E) #9654, Rabbit mAb anti-Nanog (D73G4), #4903; Rabbit mAb anti-Oct4 (C52G3) #2890; and Rabbit mAb anti-Sox2 (D6D9) #3579. Specificity of each antibody is illustrated on the company’s web page. For negative controls, pre-immune rabbit IgG was used. No signal was detected in the control IgG samples. No intensities or contrast were modified, but the appropriate bands were cut out using PhotoShop to prepare composite gel images.
To elucidate the mechanism of DT310 and DT320, cell cycle analysis and Western blotting was performed. The proteins for Western blot were selected from preliminary results using reverse phase protein array (RPPA) for DT320 and DT321 treated MDA-MB-435 and T24 cells. […] Proteins within these clusters showing the largest differences in protein expression and that were related to known anticancer drug action were confirmed by Western blot. Docetaxel was used as a positive control because it is known to induce a cell cycle arrest and apoptosis signature.

Series [6] deals with 4T1 Luc2-GFP cells. Briefly: Orthotopic 4T1 syngeneic model of triple-negative breast cancer with natural lung metastasis. It is filed as in vivo, BALB/c mice. As to the method:
4T1 Luc2-GFP cells (PerkinElmer, Waltham, MA) were cultured in DMEM high glucose media with 2 mM pyruvate, 2 mM glutamine, 2 % Pen/Strep and 10 % Cosmic Calf Serum (Mediatech, Manassas, VA). To prepare cells for injection they were removed from flasks, counted using the TC10 counting system (BioRad, Hercules, CA) and checked for viability. Cells were then washed with PBS, pelleted and taken up at a concentration of 75,000 cells/ml; 100 μl of cell suspension (7,500 cells) was injected subcutaneously (bevel side up) into mammary fat pad #4 of 8 weeks old female BALB/c mice (NCI National Laboratory Frederick/Charles River animal production program). All animals were weighed and tumors were measured using calipers three times weekly. Beginning one week after implantation, which is when micrometastatic cells begin to arrive in the lungs, animals were treated three times per week with intraperitoneal DT310 or DT320 at their NOAEL dose of 75 mg/kg three times week dissolved in saline or by osmotic pump. The osmotic pumps (Alzet #2004) delivered an NOAEL dose of 23.4 and 26.7 μg/h of DT310 and DT320, respectively, for 4 weeks and were implanted as directed subcutaneously posterior to scapulae. Docetaxel was delivered once weekly intraperitoneally at its MTD of 15 mg/kg and doxorubicin delivered once weekly at its MTD of 1 mg/kg in 5 % N-Methyl-2-pyrrolidone, 5 % Solutol HS, and 90 % saline. GFP positive cells were imaged with excitation of GFP emission using a Leica Model Z16 APO fluorescence microscope equipped for a wide field, a large depth of field and 0.57–9.2X zoom capability. GFP-positive objects were counted and scored as to whether they were […], clumps of less than ten cells without a visible vasculature, as determined by co-injection of tetramethylrhodamine labeled dextran (2 million MW).

For series [7], the system named is Capan-1 (pancreatic). The series can be described thus: Proliferation EC50 on SISgel vs monolayer. It is filed as cell-based. To be noted: Homo sapiens, n = 6-8.
Description: as §1

For series [8], the system named is MDA-MB-435-GFP cells. Briefly: Flank xenograft model of ECM-suppressed cells co-injected with SISgel. Particulars: 75 mg/kg twice weekly; 6 flanks. It is filed as in vivo, nu/nu mice. As to the method:
The efficacy of DT320 was assessed using a flank xenograft model of ECM-suppressed cancer cells that we developed, as well as an orthotopic model of “triple-negative” breast cancer. All animal protocols were reviewed and approved by the OUHSC Institutional Animal Care and Use Committee according to criteria established by the NIH Office of Laboratory Animal Welfare, and animals were housed 5 per cage with enrichment (tubes) and wood chips in the AALAC-accredited OUHSC Animal Facility with a 12 h light/dark cycle. Animals had access to water and food ad libatum. Animals were monitored daily by trained facility personnel. In the flank model, GFP-labeled cells were co-injected with SISgel, which produces a suppressed, normalized phenotype that persists after the SISgel is resorbed, but which can re-emerge into active tumor growth after 30–60 days. Animals were all female nu/nu mice (NCI National Laboratory Frederick/Charles River animal production program). An optimized number of 5 × 10^5 GFP-labeled MDA-MB-435 cells in 100 μL DMEM medium, without additives, were mixed with 100 μL of SISgel and were kept on ice until injection to prevent polymerization of the SISgel. […] The cells injected into the flanks remained as a non-growing spot, as assessed by fluorometry of the spots and the lack of mitoses seen in tissue sections, for about 3–5 weeks before some began resuming malignant growth. […]

The mark [9] stands for this setting: MDA-MB-435 cells on SISgel, read-out: EC50-S.
Where [10] appears, read: MDA-MB-435 cells on plastic, read-out: EC50-P.

What is called EC50 is the concentration giving half of the maximal effect. Regarding `COc1ccc(C2C3=C(CCCC3=O)NC3=C2C(=O)c2ccccc23)c(OC)c1OC` (centres unmarked) [DT340, 10-(2,3,4-trimethoxyphenyl)-6,7,8,10-tetrahydro-5H-indeno[1,2-b]quinoline-9,11-dione], in series [1], the “doses at which highly toxic to mice” value was “less than 10 mg/kg” and the “toxicity in mice” value is listed as “dose-limiting toxicity”. The EC50 in series [2] (setting [9]) came to 117 µM. Also, the EC50 in series [2] (setting [10]) came out at 219 µM. In addition, in series [2], the “SI (EC50-P/EC50-S)” value was 1.9. Besides, the MTD in series [3] is less than 10 mg/kg.

Take `COc1ccc(CC(=O)Oc2ccc3c(c2)C(C)=CC(C)(C)N3)cc1` [DT350, 2,2,4-trimethyl-1,2-dihydro-6-quinolinyl (4-methoxyphenyl)-acetate]: in series [1], the “doses at which highly toxic to mice” value was “less than 10 mg/kg” and the “toxicity in mice” value is on record as “dose-limiting toxicity”. Moreover, the EC50 in series [2] (setting [9]) worked out at 270 µM. Moreover, the EC50 in series [2] (setting [10]) was 1830 µM. In addition, the “SI (EC50-P/EC50-S)” value in series [2] is on record as 6.8. This compound gave an MTD in series [3] of less than 10 mg/kg.

`N.N.[Cl][Pt][Cl]` [cisplatin, reference compound]: the EC50 in series [4] (J82 monolayer, read-out: EC50 Monolayer) was 102 ± 10.2 µM; in series [4] (J82 on SISgel, read-out: EC50 SISgel) it was greater than 300 µM.

For the compound `CC(=O)O[C@@]12CO[C@@H]1C[C@H](O)[C@@]1(C)C(=O)[C@H](O)C3=C(C)[C@@H](OC(=O)[C@H](O)[C@@H](NC(=O)OC(C)(C)C)c4ccccc4)C[C@@](O)([C@@H](OC(=O)c4ccccc4)[C@H]21)C3(C)C` [docetaxel], in series [5], the CHK1 expression result is given as “neither of the DT compounds nor docetaxel induced CHK1”, the “Cyclin A1 (CCNA1) expression” value is given as “sharply down-regulate”, the “Cyclin D1 (CCND1) expression” value was “down-regulated” and the “cyclin B1 (CCNB1) expression” value is on record as “down-regulated”. Further, the pSAP/JNK expression result in series [5] is listed as “not”. The pAKT expression result in series [5] (24 h) was “did not”. In series [3] (BALB/c, ip), this compound came in with an MTD of 15 mg/kg. Moreover, the primary tumor growth result in series [6] (administered i.p. at MTD) is listed as “little effect”. For the same compound, the “number of large multicellular micrometastases and vascularized macrometastases to the lung” value in series [6] (i.p. or osmotic pump) is “only minimal effects”.

For the compound `Nc1ccn([C@@H]2O[C@H](CO)[C@@H](O)C2(F)F)c(=O)n1` [gemcitabine, reference compound], the EC50 is 78.2 ± 9.8 µM in series [7] (Capan-1 monolayer, read-out: EC50 Monolayer) and 83.1 ± 10.7 µM in series [7] (Capan-1 on SISgel, read-out: EC50 SISgel). For the same compound, the “response of suppressed flank xenografts” value in series [8] is “no response in all six flank xenografts; also recorded: remained present”.
